Source: ChEMBL document CHEMBL1139547, “Anesthetic potency of two novel synthetic polyhydric alkanols longer than the n-alkanol cutoff: evidence for a bilayer-mediated mechanism of anesthesia?” (J Med Chem, 2005)

Experiment: Effective concentration for phenotypic endpoint in tadpoles
Parameters: species or system frog, Tadpole

EC50: ~700 µM
Structure (SMILES): CCCCCCO [1-HEXANOL]
